These results are taken from US20250367162A1, “Additive for Food, Drink and Pharmaceutical Products to Improve Health and Well-Being” (RB2 Enterprises, LLC, priority 2021, published 2025).

The conditions of data set [1]: on its own; share of consumed Dihydromyricetin that enters a person's bloodstream; cited from earlier work.
The nature of data set [2]: bioavailability (share of consumed substance entering the bloodstream). It counts as in vivo. The conditions noted are these: mixed with an effective amount of a hydrogenated substance such as Erythritol. How it is done:
For use as an additive 50 that accomplishes the various objectives and which provides the aspects of the present invention, the present inventor solved several problems with regard to use of Dihydromyricetin 14a. One such problem is that Dihydromyricetin 14a, on its own, has a solubility of approximately 0.2 mg per ml of fluid, which is very low. Because the solubility of Dihydromyricetin 14a is so low, it cannot be effectively utilized as a medicine or supplement, despite the well known benefits of this flavonoid 14 for people (as well as certain animals). Another issue with Dihydromyricetin 14a is that, on its own, it has a bioavailability of approximately four percent, meaning that only about four percent of consumed Dihydromyricetin 14a enters a person's bloodstream and stays long enough to be biologically effective for product user 56. […] Mixing an effective amount of one or more solvents 60, such as a bicarbonate substance 60a or an alcohol solvent 60b, increases the solubility of Dihydromyricetin 14a from approximately 0.2 mg per ml of fluid to approximately 114 mg per ml of fluid.

A short description of data set [3]: stability / shelf-life. The class given is physicochemical.

In the case of `O=C1c2c(O)cc(O)cc2O[C@H](c2cc(O)c(O)c(O)c2)[C@H]1O` [Dihydromyricetin 14a, Dihydromyricetin], the bioavailability result in data set [1] is listed as “approximately four”. For the same compound, in data set [2], the “bioavailability of Dihydromyricetin” value was “greatly improves the bioavailability”. In addition, the “shelf-life of Dihydromyricetin” value in data set [3] (mixed with an effective amount of Erythritol and/or other hydrogenated substances) is listed as “extends the Dihydromyricetin 14a shelf-life”. Further, the stability result in data set [3] (on its own, light sensitivity and other shelf-life limitations) is “poor stability”.
